{"source": "paper PMC11012124", "about": "“Synthesis of Novel Triazine-Based Chalcones and 8,9-dihydro-7H-pyrimido[4,5-b][1,4]diazepines as Potential Leads in the Search of Anticancer, Antibacterial and Antifungal Agents” (International Journal of Molecular Sciences, 2024)", "key": {"UACC-62": {"test_system": "UACC-62", "experiment": "cells", "details": "Homo sapiens, UACC-62, 48 h"}, "SF-268": {"test_system": "SF-268", "experiment": "cells", "details": "Homo sapiens, SF-268, 48 h"}, "OVCAR-3": {"test_system": "OVCAR-3", "experiment": "cells", "details": "Homo sapiens, OVCAR-3, 48 h"}, "SF-295": {"test_system": "SF-295", "experiment": "cells", "details": "Homo sapiens, SF-295, 48 h"}, "NCI-H226": {"test_system": "NCI-H226", "experiment": "cells", "details": "Homo sapiens, NCI-H226, 48 h"}, "RPMI-8226": {"test_system": "RPMI-8226", "experiment": "cells", "details": "Homo sapiens, RPMI-8226, 48 h"}, "NCI-H322M": {"test_system": "NCI-H322M", "experiment": "cells", "details": "Homo sapiens, 48 h"}, "60 cancer cell lines": {"test_system": "60 cancer cell lines", "experiment": "NCI-60 one-dose screen (10 μM)", "format": "cell-based", "details": "Homo sapiens; one dose of 10 μM, mean over 60 cancer cell lines; read-out: Mean Growth Percent (MGP)"}, "ACHN": {"test_system": "ACHN", "experiment": "cells", "details": "Homo sapiens, 48 h"}, "HCT-116": {"test_system": "HCT-116", "experiment": "cells", "details": "Homo sapiens, HCT-116, 48 h"}, "M14": {"test_system": "M14", "experiment": "cells", "details": "Homo sapiens, M14, 48 h"}, "A498": {"test_system": "A498", "experiment": "cells", "details": "Homo sapiens, A498, 48 h"}, "U251": {"test_system": "U251", "experiment": "cells", "details": "Homo sapiens, U-251, 48 h"}, "T-47D": {"test_system": "T-47D", "experiment": "cells", "details": "Homo sapiens, T47D, 48 h"}, "OVCAR-4": {"test_system": "OVCAR-4", "experiment": "cells", "details": "Homo sapiens, OVCAR-4, 48 h"}, "SN12C": {"test_system": "SN12C", "experiment": "cells", "details": "Homo sapiens, 48 h"}, "UACC-257": {"test_system": "UACC-257", "experiment": "cells", "details": "Homo sapiens, UACC-257, 48 h"}, "MALME-3M": {"test_system": "MALME-3M", "experiment": "cells", "details": "Homo sapiens, 48 h"}, "SF-539": {"test_system": "SF-539", "experiment": "cells", "details": "Homo sapiens, SF-539, 48 h"}, "BT-549": {"test_system": "BT-549", "experiment": "cells", "details": "Homo sapiens, BT-549, 48 h"}, "MDA-MB-435": {"test_system": "MDA-MB-435", "experiment": "cells", "details": "Homo sapiens, MDA-MB-435, 48 h"}, "CCRF-CEM": {"test_system": "CCRF-CEM", "experiment": "cells", "details": "Homo sapiens, 48 h"}, "HOP-62": {"test_system": "HOP-62", "experiment": "cells", "details": "Homo sapiens, HOP-62, 48 h"}, "MDA-MB-231/ATCC": {"test_system": "MDA-MB-231/ATCC", "experiment": "cells", "details": "Homo sapiens, MDA-MB-231, 48 h"}, "MOLT-4": {"test_system": "MOLT-4", "experiment": "cells", "details": "Homo sapiens, MOLT-4, 48 h"}, "DU-145": {"test_system": "DU-145", "experiment": "cells", "details": "Homo sapiens, DU-145, 48 h"}, "LOX IMVI": {"test_system": "LOX IMVI", "experiment": "cells", "details": "Homo sapiens, 48 h"}, "UO-31": {"test_system": "UO-31", "experiment": "cells", "details": "Homo sapiens, UO-31, 48 h"}, "HT29": {"test_system": "HT29", "experiment": "cells", "details": "Homo sapiens, HT-29, 48 h"}, "OVCAR-5": {"test_system": "OVCAR-5", "experiment": "cells", "details": "Homo sapiens, OVCAR-5, 48 h"}, "[1]": {"experiment": "Hemolytic activity, spectrophotometric", "format": "cell-based, human", "details": "human, human red blood cells (huRBC), 5% hematocrit, 200 μg/mL, 37 °C"}, "COLO 205": {"test_system": "COLO 205", "experiment": "cells", "details": "Homo sapiens, COLO 205, 48 h"}, "HL-60(TB)": {"test_system": "HL-60(TB)", "experiment": "cells", "details": "Homo sapiens, HL-60, 48 h"}, "HS 578T": {"test_system": "HS 578T", "experiment": "cells", "details": "Homo sapiens, 48 h"}, "MCF7": {"test_system": "MCF7", "experiment": "cells", "details": "Homo sapiens, MCF7, 48 h"}, "OVCAR-8": {"test_system": "OVCAR-8", "experiment": "cells", "details": "Homo sapiens, OVCAR-8, 48 h"}, "PC-3": {"test_system": "PC-3", "experiment": "cells", "details": "Homo sapiens, PC-3, 48 h"}, "EKVX": {"test_system": "EKVX", "experiment": "cells", "details": "Homo sapiens, 48 h"}}}
{"smiles": "Cc1ccc(/C=C/C(=O)c2ccc(S(=O)(=O)NCCNc3nc(Nc4ccc(F)cc4)nc(N(C)C)n3)cc2)cc1", "note": "[24b]", "values": [{"measurement": "GI50", "setting": "UACC-62", "result": 8.4, "unit": "µM"}, {"measurement": "CC50", "setting": "UACC-62; read-out: LC50", "result": 47.1, "unit": "µM"}, {"measurement": "GI50", "setting": "SF-268", "result": 8.76, "unit": "µM"}, {"measurement": "CC50", "setting": "SF-268; read-out: LC50", "result": 90.9, "unit": "µM"}, {"measurement": "GI50", "setting": "OVCAR-3", "result": 11.3, "unit": "µM"}, {"measurement": "CC50", "setting": "OVCAR-3; read-out: LC50", "result": 54.6, "unit": "µM"}, {"measurement": "GI50", "setting": "SF-295", "result": 11.5, "unit": "µM"}, {"measurement": "CC50", "setting": "SF-295; read-out: LC50", "result": 49.2, "unit": "µM"}, {"measurement": "GI50", "setting": "NCI-H226", "result": 10.4, "unit": "µM"}, {"measurement": "CC50", "setting": "NCI-H226; read-out: LC50", "result": 63.9, "unit": "µM"}, {"measurement": "GI50", "setting": "RPMI-8226", "result": 2.73, "unit": "µM"}, {"measurement": "CC50", "setting": "RPMI-8226; read-out: LC50", "result": "> 100", "unit": "µM"}, {"measurement": "GI50", "setting": "NCI-H322M", "result": 11.8, "unit": "µM"}, {"measurement": "CC50", "setting": "NCI-H322M; read-out: LC50", "result": 62.5, "unit": "µM"}, {"measurement": "activity at 10 µM", "setting": "60 cancer cell lines", "result": 16.5, "unit": "%"}, {"measurement": "GI50", "setting": "ACHN", "result": 6.31, "unit": "µM"}, {"measurement": "CC50", "setting": "ACHN; read-out: LC50", "result": 44.1, "unit": "µM"}, {"measurement": "GI50", "setting": "HCT-116", "result": 1.75, "unit": "µM"}, {"measurement": "CC50", "setting": "HCT-116; read-out: LC50", "result": 6.17, "unit": "µM"}, {"measurement": "GI50", "setting": "M14", "result": 5.91, "unit": "µM"}, {"measurement": "CC50", "setting": "M14; read-out: LC50", "result": 49.2, "unit": "µM"}, {"measurement": "GI50", "setting": "A498", "result": 12.6, "unit": "µM"}, {"measurement": "CC50", "setting": "A498; read-out: LC50", "result": 51.4, "unit": "µM"}, {"measurement": "GI50", "setting": "U251; U251, 48 h", "result": 11.6, "unit": "µM"}, {"measurement": "CC50", "setting": "U251; read-out: LC50", "result": 58.7, "unit": "µM"}, {"measurement": "GI50", "setting": "T-47D", "result": 3.86, "unit": "µM"}, {"measurement": "CC50", "setting": "T-47D; read-out: LC50", "result": 52.7, "unit": "µM"}, {"measurement": "GI50", "setting": "OVCAR-4", "result": 7.79, "unit": "µM"}, {"measurement": "CC50", "setting": "OVCAR-4; read-out: LC50", "result": "> 100", "unit": "µM"}, {"measurement": "GI50", "setting": "SN12C", "result": 11.2, "unit": "µM"}, {"measurement": "CC50", "setting": "SN12C; read-out: LC50", "result": 48.8, "unit": "µM"}, {"measurement": "GI50", "setting": "UACC-257", "result": 17.4, "unit": "µM"}, {"measurement": "CC50", "setting": "UACC-257; read-out: LC50", "result": 62.9, "unit": "µM"}, {"measurement": "GI50", "setting": "MALME-3M", "result": 16.4, "unit": "µM"}, {"measurement": "CC50", "setting": "MALME-3M; read-out: LC50", "result": 60.9, "unit": "µM"}, {"measurement": "GI50", "setting": "SF-539", "result": 13, "unit": "µM"}, {"measurement": "CC50", "setting": "SF-539; read-out: LC50, SF-539, 48 h", "result": 51.7, "unit": "µM"}, {"measurement": "GI50", "setting": "BT-549", "result": 15.7, "unit": "µM"}, {"measurement": "CC50", "setting": "BT-549; read-out: LC50", "result": 57.8, "unit": "µM"}, {"measurement": "GI50", "setting": "MDA-MB-435", "result": 6.03, "unit": "µM"}, {"measurement": "CC50", "setting": "MDA-MB-435; read-out: LC50", "result": 61.7, "unit": "µM"}, {"measurement": "GI50", "setting": "CCRF-CEM", "result": 5.28, "unit": "µM"}, {"measurement": "CC50", "setting": "CCRF-CEM; read-out: LC50", "result": "> 100", "unit": "µM"}, {"measurement": "GI50", "setting": "HOP-62", "result": 15.3, "unit": "µM"}, {"measurement": "CC50", "setting": "HOP-62; read-out: LC50", "result": 64.8, "unit": "µM"}, {"measurement": "GI50", "setting": "MDA-MB-231/ATCC", "result": 6.56, "unit": "µM"}, {"measurement": "CC50", "setting": "MDA-MB-231/ATCC; read-out: LC50", "result": 48, "unit": "µM"}, {"measurement": "GI50", "setting": "MOLT-4", "result": 3.86, "unit": "µM"}, {"measurement": "CC50", "setting": "MOLT-4; read-out: LC50", "result": "> 100", "unit": "µM"}, {"measurement": "GI50", "setting": "DU-145", "result": 14, "unit": "µM"}, {"measurement": "CC50", "setting": "DU-145; read-out: LC50", "result": 74.8, "unit": "µM"}, {"measurement": "GI50", "setting": "LOX IMVI", "result": 4.12, "unit": "µM"}, {"measurement": "CC50", "setting": "LOX IMVI; read-out: LC50, LOX IMVI, 48 h", "result": 39.3, "unit": "µM"}, {"measurement": "GI50", "setting": "UO-31", "result": 6.77, "unit": "µM"}, {"measurement": "CC50", "setting": "UO-31; read-out: LC50", "result": 44.7, "unit": "µM"}, {"measurement": "GI50", "setting": "HT29", "result": 2.38, "unit": "µM"}, {"measurement": "CC50", "setting": "HT29; read-out: LC50", "result": 16.2, "unit": "µM"}, {"measurement": "GI50", "setting": "OVCAR-5", "result": 14.9, "unit": "µM"}, {"measurement": "CC50", "setting": "OVCAR-5; read-out: LC50", "result": 53.7, "unit": "µM"}, {"measurement": "hemolysis at 24 h, 200 µg/mL", "setting": "[1]", "result": 1.2, "unit": "%"}, {"measurement": "GI50", "setting": "COLO 205", "result": 6.51, "unit": "µM"}, {"measurement": "CC50", "setting": "COLO 205; read-out: LC50", "result": 55.1, "unit": "µM"}, {"measurement": "GI50", "setting": "HL-60(TB)", "result": 5.58, "unit": "µM"}, {"measurement": "CC50", "setting": "HL-60(TB); read-out: LC50", "result": "> 100", "unit": "µM"}, {"measurement": "GI50", "setting": "HS 578T", "result": 10.7, "unit": "µM"}, {"measurement": "CC50", "setting": "HS 578T; read-out: LC50", "result": "> 100", "unit": "µM"}, {"measurement": "GI50", "setting": "MCF7", "result": 2.01, "unit": "µM"}, {"measurement": "CC50", "setting": "MCF7; read-out: LC50", "result": 25.2, "unit": "µM"}, {"measurement": "GI50", "setting": "OVCAR-8", "result": 13, "unit": "µM"}, {"measurement": "CC50", "setting": "OVCAR-8; read-out: LC50", "result": 56, "unit": "µM"}, {"measurement": "GI50", "setting": "PC-3", "result": 3.54, "unit": "µM"}, {"measurement": "CC50", "setting": "PC-3; read-out: LC50", "result": 89.5, "unit": "µM"}, {"measurement": "GI50", "setting": "EKVX", "result": 4.96, "unit": "µM"}, {"measurement": "CC50", "setting": "EKVX; read-out: LC50", "result": 43.3, "unit": "µM"}]}
